Measurements from publication PMC2957182 (Molecular and cellular endocrinology, 2010).

Tests used:
Akt = conditions: HNMPA-(AM3) 500 μM, ILP3 10 pmol or ILP4 20 pmol, 2 h, immunoblot
ovaries = conditions: bovine insulin; ref Riehle and Brown, 1999; cited from earlier work

## CC(=O)OCOC(c1ccc2ccccc2c1)P(=O)(OCOC(C)=O)OCOC(C)=O (centres unmarked) [HNMPA-(AM3)]
Akt
  Akt phosphorylation in ovaries with ILPs plus HNMPA-(AM3): no change in phosphorylation

## bovine insulin: bovine insulin
ovaries
  Ecdysteroid production by ovaries: stimulates ecdysteroid production
